Counter-ions that a name gives are not always drawn.
Columns and labels:
Format in all cases: cell-based
IRAK4 = target: T1, IRAK4 (Homo sapiens, UniProt Q9NWZ3); experiment: Target protein degradation effect in K562 IRAK4-HiBiT cells (Nano-Glo HiBiT luminescence); settings: incubated 16 to 18 hours
T1 construct: expressed in transfected cells; host or cells: K562 IRAK4-HiBiT cells
T1 sequence (Q9NWZ3 1-460): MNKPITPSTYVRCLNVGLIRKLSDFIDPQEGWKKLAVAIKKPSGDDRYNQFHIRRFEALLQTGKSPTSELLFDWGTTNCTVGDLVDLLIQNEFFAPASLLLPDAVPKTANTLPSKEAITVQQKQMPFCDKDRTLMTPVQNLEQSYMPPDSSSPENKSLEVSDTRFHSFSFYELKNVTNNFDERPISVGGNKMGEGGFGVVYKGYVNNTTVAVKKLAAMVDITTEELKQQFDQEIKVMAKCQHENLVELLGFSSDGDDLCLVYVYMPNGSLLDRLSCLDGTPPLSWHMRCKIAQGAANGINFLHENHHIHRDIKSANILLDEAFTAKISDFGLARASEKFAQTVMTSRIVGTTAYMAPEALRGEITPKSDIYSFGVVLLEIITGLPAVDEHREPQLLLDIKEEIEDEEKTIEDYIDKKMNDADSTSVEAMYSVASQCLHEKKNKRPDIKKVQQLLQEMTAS
Description: Objective: In this experiment, the degradation effect of the test compound on the target protein IRAK4 in K562 IRAK4-HiBiT cells was detected.
Cells: K562 IRAK4-HiBiT cells [formula]
Positive control: 1000 nM; negative control: 0.1% DMSO Table 1. Reagents and consumables
• 1. […] Cell seeding • (1) The cell culture medium was discarded, and the cells were washed once with DPBS, digested with trypsin, and counted to prepare a cell suspension of […]. • (2) 25 µL/well of cell suspension was added to the assay plate containing the test compound using Multidrop Combi at medium speed. • (3) The assay plate containing cells was returned to an incubator with 5% CO2 at 37°C and incubated for 16 to 18 hours.
• (1) 25 µL/well of assay reagent (NanoGlo lysis buffer + substrate + LgBit protein) was added to the assay plate using Multidrop Combi at high speed, and the plate was shaken for 10 minutes. • (2) The plate was centrifuged at 2000 rpm for 1 minute to remove air bubbles. • (3) The plate was read on Envision using US Luminescence detection method.
The degradation rate (DR) of the test compound was calculated using the following formula: DR (%) = (RLU vehicle control - RLU compound) / (RLU vehicle control - RLU positive control) * 100%, where the vehicle control served as the blank control. […]

IKZF3 = target: T2, IKZF3 (Homo sapiens, UniProt Q96SW2+Q9UKT9); experiment: In cell western analysis of IKZF3 protein expression level in MM.1S cells; settings: IKZF3, MM.1S cells, 24 hours
T2 construct: expression levels of IKZF1 and IKZF3 proteins in MM.1S cells; host or cells: MM.1S cells
Description: (§1) Objective: The experiment was conducted to evaluate the degradation effects of test compounds on IKZF1 and IKZF3 proteins in MM.1S cells by detecting their impact on the expression levels of IKZF1 and IKZF3 proteins in MM.1S cells.
(§2) Cell line: MM.1S cell (obtained from ATCC; Cat. No. CRL-2974)
(§3) Negative control: 0.1% DMSO Table 4. Reagents and consumables
(§4) Experimental scheme: • 1) MM.1S cells in the logarithmic growth phase were seeded into a 96-well plate at 1.2 × 10^5 cells per well and cultured overnight. • 2) On the second day, drug treatment was initiated with a starting concentration of 300 nM, followed by a 3-fold dilution in triplicate wells, with 10 concentration gradients (containing DMSO), and incubated for 24 hours in a culture incubator. • 3) The mixture was centrifuged, and the cell supernatant was carefully removed. […]
(§5) GraphPad Prism 6 software was utilized to fit the curve with the inhibition rate data, and the DC50 value was calculated.

IKZF1 = target: T3, IKZF1 (Homo sapiens, UniProt Q13422+Q96SW2); experiment: In cell western analysis of IKZF1 protein expression level in MM.1S cells; settings: IKZF 1, MM.1S cells, 24 hours
T3 construct: expression levels of IKZF1 and IKZF3 proteins in MM.1S cells; host or cells: MM.1S cells
Description: as §1, §2, §3, §4, §5

T3 sequence (Q13422 whole entry): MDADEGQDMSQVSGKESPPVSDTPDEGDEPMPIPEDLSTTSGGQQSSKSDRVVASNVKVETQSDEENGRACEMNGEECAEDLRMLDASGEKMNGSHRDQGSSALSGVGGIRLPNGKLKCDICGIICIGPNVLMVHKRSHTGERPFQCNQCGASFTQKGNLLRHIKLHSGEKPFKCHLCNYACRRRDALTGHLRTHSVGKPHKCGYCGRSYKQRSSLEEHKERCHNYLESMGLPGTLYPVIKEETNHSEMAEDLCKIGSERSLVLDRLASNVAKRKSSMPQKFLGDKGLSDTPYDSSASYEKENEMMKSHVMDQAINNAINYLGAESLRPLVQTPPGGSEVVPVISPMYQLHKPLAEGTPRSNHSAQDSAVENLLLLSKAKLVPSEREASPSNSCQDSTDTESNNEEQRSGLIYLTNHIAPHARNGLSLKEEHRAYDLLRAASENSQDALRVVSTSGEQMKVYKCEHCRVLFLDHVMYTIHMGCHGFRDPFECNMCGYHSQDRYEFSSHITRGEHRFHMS
T3 sequence (Q96SW2 whole entry): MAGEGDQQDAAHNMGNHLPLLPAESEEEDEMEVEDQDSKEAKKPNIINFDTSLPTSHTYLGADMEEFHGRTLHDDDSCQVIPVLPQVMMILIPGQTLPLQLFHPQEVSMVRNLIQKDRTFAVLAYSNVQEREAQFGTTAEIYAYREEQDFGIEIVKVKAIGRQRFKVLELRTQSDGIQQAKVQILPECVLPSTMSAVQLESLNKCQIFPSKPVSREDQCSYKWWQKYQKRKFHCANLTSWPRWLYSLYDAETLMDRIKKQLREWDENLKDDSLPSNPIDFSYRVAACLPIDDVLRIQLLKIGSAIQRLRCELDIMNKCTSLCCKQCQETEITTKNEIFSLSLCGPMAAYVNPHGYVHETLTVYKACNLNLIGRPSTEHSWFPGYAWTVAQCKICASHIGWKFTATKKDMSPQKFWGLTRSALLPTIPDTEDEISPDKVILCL
T3 sequence (Q16531 whole entry partner): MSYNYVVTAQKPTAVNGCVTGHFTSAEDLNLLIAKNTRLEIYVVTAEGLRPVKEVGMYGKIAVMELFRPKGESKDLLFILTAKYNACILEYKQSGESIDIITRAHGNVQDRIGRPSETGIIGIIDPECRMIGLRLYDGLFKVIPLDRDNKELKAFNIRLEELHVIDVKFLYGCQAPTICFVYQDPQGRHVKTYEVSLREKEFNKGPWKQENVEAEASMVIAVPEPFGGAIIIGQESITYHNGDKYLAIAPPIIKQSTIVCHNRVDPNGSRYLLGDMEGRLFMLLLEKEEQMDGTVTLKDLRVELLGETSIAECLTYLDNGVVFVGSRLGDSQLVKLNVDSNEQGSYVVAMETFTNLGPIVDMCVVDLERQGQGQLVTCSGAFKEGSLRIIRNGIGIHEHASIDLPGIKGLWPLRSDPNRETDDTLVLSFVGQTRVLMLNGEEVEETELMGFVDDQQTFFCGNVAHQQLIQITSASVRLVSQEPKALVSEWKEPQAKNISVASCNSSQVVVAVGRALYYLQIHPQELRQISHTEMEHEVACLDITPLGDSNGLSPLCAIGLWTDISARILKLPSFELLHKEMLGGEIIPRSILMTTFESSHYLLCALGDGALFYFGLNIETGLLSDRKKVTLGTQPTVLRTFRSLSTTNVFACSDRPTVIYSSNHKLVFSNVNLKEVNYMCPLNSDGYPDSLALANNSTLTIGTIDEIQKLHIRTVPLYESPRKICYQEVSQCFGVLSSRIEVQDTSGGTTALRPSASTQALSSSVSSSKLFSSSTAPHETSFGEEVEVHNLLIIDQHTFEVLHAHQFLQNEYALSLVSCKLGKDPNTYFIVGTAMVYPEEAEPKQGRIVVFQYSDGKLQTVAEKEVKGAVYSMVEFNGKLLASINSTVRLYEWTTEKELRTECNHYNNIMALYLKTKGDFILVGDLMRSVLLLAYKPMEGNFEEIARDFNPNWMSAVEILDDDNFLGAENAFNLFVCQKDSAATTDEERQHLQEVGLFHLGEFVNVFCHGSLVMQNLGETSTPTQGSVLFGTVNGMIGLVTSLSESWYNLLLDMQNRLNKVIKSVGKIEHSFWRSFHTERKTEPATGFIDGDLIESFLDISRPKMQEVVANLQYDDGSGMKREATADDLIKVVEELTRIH
T2 sequence (Q9UKT9 whole entry): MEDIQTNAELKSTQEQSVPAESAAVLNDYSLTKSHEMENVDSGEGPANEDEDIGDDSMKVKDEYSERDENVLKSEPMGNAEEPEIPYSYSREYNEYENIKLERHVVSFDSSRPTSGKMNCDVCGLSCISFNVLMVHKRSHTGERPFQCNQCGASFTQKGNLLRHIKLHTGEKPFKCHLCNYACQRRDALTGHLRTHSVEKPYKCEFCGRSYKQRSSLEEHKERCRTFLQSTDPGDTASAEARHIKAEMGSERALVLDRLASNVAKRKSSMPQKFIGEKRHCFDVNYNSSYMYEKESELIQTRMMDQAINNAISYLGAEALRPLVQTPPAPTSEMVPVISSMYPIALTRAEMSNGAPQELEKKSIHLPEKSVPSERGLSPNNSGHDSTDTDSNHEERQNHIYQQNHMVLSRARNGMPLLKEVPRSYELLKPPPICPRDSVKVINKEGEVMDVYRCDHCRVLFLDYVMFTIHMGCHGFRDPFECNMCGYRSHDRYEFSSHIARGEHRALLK
T2 sequence (Q96SW2 whole entry): as the sequence (Q96SW2 whole entry) above
T2 sequence (Q16531 whole entry partner): as the sequence (Q16531 whole entry partner) above

O=C1CCC(c2noc3ccc4c(NC(=O)CN5CCN(C[C@H]6CC[C@H](n7cc(NC(=O)c8coc(-c9ccnc(NCC%10CC%10)c9)n8)c(C(F)F)n7)CC6)CC5)cccc4c23)C(=O)N1 (stereo partly drawn) [Hydrochloride of Compound of Formula (I)]
DC50 (IRAK4): 4.87 nM | DC50 (IKZF3): 20.6 nM | DC50 (IKZF1): 23.4 nM
